Measurements as given in US20130196986A1 (priority 2010, published 2013).
pIC50: −log10 of the molar value.

Target: T1, P2X7 receptor (Homo sapiens, UniProt Q99572)
T1 construct: stably expressing the full length P2X7 receptor; expressed in transfected cells
T1 sequence (Q99572 1-595): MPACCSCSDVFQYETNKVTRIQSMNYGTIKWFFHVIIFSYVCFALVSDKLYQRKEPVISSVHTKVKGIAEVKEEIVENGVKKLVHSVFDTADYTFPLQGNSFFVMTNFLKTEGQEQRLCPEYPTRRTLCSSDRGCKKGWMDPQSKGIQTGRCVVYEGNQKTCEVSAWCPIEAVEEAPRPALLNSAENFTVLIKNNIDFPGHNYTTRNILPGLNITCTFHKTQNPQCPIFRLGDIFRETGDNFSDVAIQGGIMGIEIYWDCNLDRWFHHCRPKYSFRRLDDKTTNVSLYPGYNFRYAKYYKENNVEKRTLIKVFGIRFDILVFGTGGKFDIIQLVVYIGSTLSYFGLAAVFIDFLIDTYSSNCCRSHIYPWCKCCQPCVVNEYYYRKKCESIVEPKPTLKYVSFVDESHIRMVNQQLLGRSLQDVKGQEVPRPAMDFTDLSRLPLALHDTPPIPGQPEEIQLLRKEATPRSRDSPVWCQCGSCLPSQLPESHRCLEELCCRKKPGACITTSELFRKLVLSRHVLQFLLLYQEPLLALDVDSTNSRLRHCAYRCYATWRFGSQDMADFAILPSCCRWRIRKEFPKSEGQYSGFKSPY
Assay: Ca++ flux assay (FLIPR) in P2X7-HEK-293 cell line stably expressing the full length P2X7 receptor, Bz-ATP activation
Assay type: cell-based
Conditions: P2X7-HEK-293 cells; agonist Bz-ATP; fluorescence as total area over 90 seconds; read-out: P2X7 Ca Flux hu IC50
Method in brief: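 HEK-293 cells stably expressing full-length P2X7 were loaded with Ca++-sensitive dye for 1 h, with compound added during loading. Cells were stimulated with Bz-ATP on FLIPR. Fluorescence was integrated as total area over 90 s, and IC50 was taken as 50% inhibition of the maximal Ca++ response.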

pIC50	SMILES
7.27	Cc1c(Cl)cccc1-n1ccn2c(S(=O)(=O)Cc3ccccc3-c3ccccc3)nnc2c1=O [Compound 155, 3-(biphenyl-2-ylmethylsulfonyl)-7-(3-chloro-2-methylphenyl)-[1,2,4]triazolo[4,3-a]pyrazin-8(7H)-one]
6.07	Cc1c(Br)cccc1-n1ccn2c(SCc3cc(Cl)cc(Cl)c3)nnc2c1=O [Compound 83, 7-(3-brorno-2-methylphenyl)-3-(3,5-dichlorobenzylthio)-[1,2,4]triazolo[4,3-a]pyrazin-8(7H)-one]
6.26	Cc1c(Cl)cccc1-n1ccn2c(SCc3ccccc3CCc3ccccc3)nnc2c1=O [Compound 44]
7.76	Cc1c(Cl)cccc1-n1ccn2c(S(=O)(=O)Cc3cccc(F)c3Cl)nnc2c1=O [Compound 130, 7-(3-chloro-2-methylphenyl)-3-(2-chloro-3-fluorobenzylsulfonyl)-[1,2,4]triazolo[4,3-a]pyrazin-8(7H)-one]
7.92	Cc1c(-n2ccn3c(S(=O)(=O)Cc4ccccc4Cl)nnc3c2=O)cccc1C(F)(F)F [Compound 121, 3-(2-chlorobenzylsulfonyl)-7-(2-methyl-3-(trifluoromethyl)phenyl)-[1,2,4]triazolo[4,3-a]pyrazin-8(7H)-one]
8.16	Cc1c(-n2ccn3c(S(=O)(=O)Cc4ccccc4-c4ccc(Cl)cc4)nnc3c2=O)cccc1C(F)(F)F [Compound 118, 3-((4′-chlorobiphenyl-2-yl)methylsulfonyl)-7-(2-methyl-3-(trifluoromethyl)phenyl)-[1,2,4]triazolo[4,3-a]pyrazin-8(7H)-one]
7.43	Cc1ccc(-c2ccccc2CS(=O)(=O)c2nnc3c(=O)n(-c4cccc(C(F)(F)F)c4C)ccn23)s1 [Compound 141]
6.34	Cc1c(Cl)cccc1-n1ccn2c(SCc3cccc(I)c3)nnc2c1=O [Compound 77, 7-(3-chloro-2-methylphenyl)-3-(3-iodobenzylthio)-[1,2,4]triazolo[4,3-a]pyrazin-8(7H)-one]
6.84	Cc1c(-n2ccn3c(SCc4ccccc4Oc4ccccc4)nnc3c2=O)cccc1C(F)(F)F [Compound 20, 7-(2-methyl-3-(trifluoromethyl)phenyl)-3-(2-phenoxybenzylthio)-[1,2,4]triazolo[4,3-a]pyrazin-8(7H)-one]
6.20	Cc1c(-n2ccn3c(S(=O)(=O)Cc4ccccc4-c4ccc(C(F)(F)F)cc4)nnc3c2=O)cccc1C(F)(F)F [Compound 164, 7-(2-methyl-3-(trifluoromethyl)phenyl)-3-((4′-(trifluoromethyl)biphenyl-2-yl)methylsulfonyl)-[1,2,4]triazolo[4,3-a]pyrazin-8(7H)-one]
6.92	Cc1c(Cl)cccc1-n1ccn2c(S(=O)(=O)Cc3cccc(Cl)c3)nnc2c1=O [Compound 156, 7-(3-chloro-2-methylphenyl)-3-(3-chlorobenzylsulfonyl)-[1,2,4]triazolo[4,3-a]pyrazin-8(7H)-one]
6.19	COC(=O)c1ccccc1CSc1nnc2c(=O)n(-c3cccc(Cl)c3C)ccn12 [Compound 90, methyl 2-((7-(3-chloro-2-methylphenyl)-8-oxo-7,8-dihydro-[1,2,4]triazolo[4,3-a]pyrazin-3-ylthio)methyl)benzoate]
7.42	Cc1c(-n2ccn3c(SCc4ccccc4)nnc3c2=O)cccc1C(F)(F)F [Compound 93, 3-(benzylthio)-7-(2-methyl-3-(trifluoromethyl)phenyl)-[1,2,4]triazolo[4,3-a]pyrazin-8(7H)-one]
6.68	Cc1cccc(-n2ccn3c(SCc4ccccc4)nnc3c2=O)c1C [Compound 92, 3-(benzylthio)-7-(2,3-dimethylphenyl)-[1,2,4]triazolo[4,3-a]pyrazin-8(7H)-one]
5.50	Cc1c(Cl)cccc1-n1ccn2c(SCc3cc(Cl)ccc3Cl)nnc2c1=O [Compound 72, 7-(3-chloro-2-methylphenyl)-3-(2,5-dichlorobenzylthio)-[1,2,4]triazolo[4,3-a]pyrazin-8(7H)-one]
5.25	COc1ccc(CSc2nnc3c(=O)n(-c4cccc(Cl)c4C)ccn23)cc1 [Compound 113, 7-(3-chloro-2-methylphenyl)-3-(4-methoxybenzylthio)-[1,2,4]triazolo[4,3-a]pyrazin-8(7H)-one]
5.88	COc1cc(CSc2nnc3c(=O)n(-c4cccc(Cl)c4C)ccn23)cc(OC)c1 [Compound 79, 7-(3-chloro-2-methylphenyl)-3-(3,5-dimethoxybenzylthio)-[1,2,4]triazolo[4,3-a]pyrazin-8(7H)-one]

pIC50	SMILES
5.19	Cc1c(Cl)cccc1-n1ccn2c(SC(=O)N(C)c3ccccc3)nnc2c1=O [Compound 50, S-7-(3-chloro-2-methylphenyl)-8-oxo-7,8-dihydro-[1,2,4]triazolo[4,3-a]pyrazin-3-yl methyl(phenyl)carbamothioate]
6.05	Cc1c(Cl)cccc1-n1ccn2c(SCc3ccc(F)c(F)c3)nnc2c1=O [Compound 115, 7-(3-chloro-2-methylphenyl)-3-(3,4-difluorobenzylthio)-[1,2,4]triazolo[4,3-a]pyrazin-8(7H)-one]
6.43	O=c1c2nnc(SCc3ccccc3)n2ccn1-c1cccc(Cl)c1F [Compound 82, 3-(benzylthio)-7-(3-chloro-2-fluorophenyl)-[1,2,4]triazolo[4,3-a]pyrazin-8(7H)-one]
7.36	Cc1c(Cl)cccc1-n1ccn2c(SCc3ccccc3-c3ccccc3)nnc2c1=O [Compound 54, 3-(biphenyl-2-ylmethylthio)-7-(3-chloro-2-methylphenyl)-[1,2,4]triazolo[4,3-a]pyrazin-8(7H)-one]
6.77	Cc1c(Cl)cccc1-n1ccn2c(SCc3ccccc3COc3ccccc3)nnc2c1=O [Compound 42, 7-(3-chloro-2-methylphenyl)-3-(2-(phenoxymethyl)benzylthio)-[1,2,4]triazolo[4,3-a]pyrazin-8(7H)-one]
6.36	Cc1c(Cl)cccc1-n1ccn2c(SCc3ccccc3C#N)nnc2c1=O [Compound 87, 2((7-(3-chloro-2-methylphenyl)-8-oxo-7,8-dihydro-[1,2,4]triazolo[4,3-a]pyrazin-3-ylthio)methyl)benzonitrile]
7.54	Cc1c(-n2ccn3c(S(=O)(=O)Cc4ccccc4)nnc3c2=O)cccc1C(F)(F)F [Compound 116]
6.50	Cc1c(Cl)cccc1-n1ccn2c(SCc3ccccc3SC(F)(F)F)nnc2c1=O [Compound 52, 7-(3-chloro-2-methylphenyl)-3-(2-(trifluorornethylthio)benzylthio)-[1,2,4]triazolo[4,3-a]pyrazin-8(7H)-one]
6.89	O=c1c2nnc(S(=O)(=O)C(c3ccccc3)c3ccccc3)n2ccn1-c1cccc(C(F)(F)F)c1Cl [Compound 144, 3-(benzhydrylsulfonyl)-7-(2-chloro-3-(trifluoromethyl)phenyl)-[1,2,4]triazolo[4,3-a]pyrazin-8(7H)-one]
5.88	Cc1c(Cl)cccc1-n1ccn2c(SCc3ccc(Cl)c(Cl)c3)nnc2c1=O [Compound 103, 7-(3-chloro-2-methylphenyl)-3-(3,4-dichlorobenzylthio)-[1,2,4]triazolo[4,3-a]pyrazin-8(7H)-one]
6.78	O=c1c2nnc(SCc3cccc4ccccc34)n2ccn1-c1cccc(C(F)(F)F)c1Cl [Compound 27, 7-(2-chloro-3-(trifluoromethyl)phenyl)-3-(naphthalen-1-ylmethylthio)-[1,2,4]triazolo[4,3-a]pyrazin-8(7H)-one]
7.29	Cc1c(Cl)cccc1-n1ccn2c(S(=O)(=O)Cc3ccccc3-c3cccs3)nnc2c1=O [Compound 151, 7-(3-chloro-2-methylphenyl)-3-(2-(thiophen-2-yl)benzylsulfonyl)-[1,2,4]triazolo[4,3-a]pyrazin-8(7H)-one]
7.18	Cc1ccc(-c2ccccc2CSc2nnc3c(=O)n(-c4cccc(C(F)(F)F)c4C)ccn23)cc1 [Compound 7, 7-(2-methyl-3-(trifluoromethyl)phenyl)-3-((4′-methylbiphenyl-2-yl)methylthio)-[1,2,4]triazolo[4,3-a]pyrazin-8(7H)-one]
7.77	Cc1c(-n2ccn3c(S(=O)(=O)Cc4ccccc4C(C)(C)C)nnc3c2=O)cccc1C(F)(F)F [Compound 129, 3-(2-tert-butylbenzylsulfonyl)-7-(2-methyl-3-(trifluoromethyl)phenyl)-[1,2,4]triazolo[4,3-a]pyrazin-8(7H)-one]
7.38	O=c1c2nnc(SC(c3ccccc3)c3ccccc3)n2ccn1-c1cccc(C(F)(F)F)c1Cl [Compound 25, 3-(benzhydrylthio)-7-(2-chloro-3-(trifluoromethyl)phenyl)-[1,2,4]triazolo[4,3-a]pyrazin-8(7H)-one]
5.51	Cc1c(-n2ccn3c(S(=O)(=O)CC(=O)c4ccccc4)nnc3c2=O)cccc1C(F)(F)F [Compound 163, 7-(2-methyl-3-(trifluoromethyl)phenyl)-3-(2-oxo-2-phenylethylsulfonyl)-[1,2,4]triazolo[4,3-a]pyrazin-8(7H)-one]
